Assay results from patent US10548898B2, “Quinazoline compounds” (Gilead Sciences, Inc., priority 2014, dated 2020).
Like-named read-outs stand apart in the source and are kept apart here.

Tests used:
Type in all cases: cell-based
[1] = system: HIV-1 HBX2 (wild type); test: High throughput cytopathic effect assay in MT-4 cells, wild type HIV-1
Method in brief: (§1)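 MT-4 cells infected 1 h at 37 °C at MOI 0.0005, then plated onto ten-point half-log compound dilutions and incubated 5 days. Cell viability read by CellTiter-Glo luminescence, normalized to AZT and DMSO controls as % CPE protection; EC50 from four-parameter fit.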

[2] = system: HIV-1 reverse transcriptase mutant K103N; test: High throughput cytopathic effect assay in MT-4 cells, K103N mutant; details: for EC50: Human immunodeficiency virus 1, MT4, 120 h, read-out: MT4 EC50 (nM) against K103N; for FC against mutant K103N: fold change of MT4 EC50 versus w.t. assay 2
Method in brief: as §1

[3] = system: HIV-1 reverse transcriptase mutant Y181C; test: High throughput cytopathic effect assay in MT-4 cells, Y181C mutant; details: for EC50: Human immunodeficiency virus 1, MT4, 120 h, read-out: MT4 EC50 (nM) against Y181C; for FC against mutant Y181C: fold change of MT4 EC50 versus w.t. assay 2
Method in brief: as §1

[4] = system: HIV-1 recombinant strain encoding reverse transcriptase mutation K103N; test: Resistance profile against HIV-1 RT mutants in MT-2 cells, K103N; details: ratio of mean EC50 mutant/WT virus
Protocol: (§2) Compounds were tested for antiviral activity against a panel of NNRTI resistant viruses. A panel of 8 clonal site-directed mutant viruses representing the major resistance development pathways against rilpivirine (“RPV”), efavirenz (“EFV”), and nevirapine (“NVP”), containing both single and double mutations within HIV-1 reverse transcriptase was employed. Further details and background can be found in Janssen et al. J. Med. Chem, 2005, 48, 1901-1909; Das et al., Proc. Nat. Acad. Sci., 2008, vol., 105, no. 5, 1466-1471; and Kuroda et al., Nature Chemistry, 2013, DOI: 10.1038/NCHEM. 1559. […] HIV-1 recombinant strains encoding reverse transcriptase mutations K103N, Y181C, Y188L, G190A, K103N/Y181C, L1001/Y181C, E138K or E138KIM 184V were constructed by site-directed mutagenesis. Wild-type and mutant viruses were prepared by transfecting infectious proviral HXB2-based cDNA clones into MT-2 cells and harvesting the cell supernatants. MT-2 cells were infected with wild-type and mutant HIV-1 strains at a multiplicity of infection (MOI) of 0.005 by gentle mixing for 3 hours at 37° C. and then added at a density of 16,667 cells per well in 50 μL complete RPMI cell culture media (containing 10% fetal bovine serum (FBS) and 10% penicillin-streptomycin) to 96-well plates containing 50 μL of a 3-fold serial dilution of test compounds in RPMI medium. After 5 days of incubation at 37° C. in a humidified incubator in the presence of 5% CO2. 100 μL of Cell Titer-Glo™ Reagent (Promega Biosciences, Inc., Madison, Wis.) was added to each well and the relative light units (RLU) measured on an Envision plate reader. […] The EC50 value was defined as the compound concentration inducing a 50% decrease in virus replication. Data analysis for the antiviral activity observed in MT-2 cells was performed using XL-Fit™ software (IDBS, Guildford, Surrey, UK) to calculate EC50 from an 8-point dose-response curve using the following equation:
(§3) [formula] where y=virus inhibition, x=drug concentration, M=maximum inhibition, H=minimum inhibition and n=Hill coefficient, EC50 values (mean±standard deviation) were calculated from at least three independent experiments performed in triplicate. The level of resistance was calculated as a ratio of the mean EC50 for each mutant/WT virus. Results are disclosed in FIG. 1 and in Tables 3 and 4 below.

[5] = system: HIV-1 recombinant strain encoding reverse transcriptase mutation Y181C; test: Resistance profile against HIV-1 RT mutants in MT-2 cells, Y181C; details: ratio of mean EC50 mutant/WT virus
Protocol: as §2, §3

[6] = system: HIV-1 recombinant strain encoding reverse transcriptase mutation L100I/Y181C; test: Resistance profile against HIV-1 RT mutants in MT-2 cells, L100I/Y181C; details: ratio of mean EC50 mutant/WT virus
Protocol: as §2, §3

[7] = system: HIV-1 recombinant strain encoding reverse transcriptase mutation K103N/Y181C; test: Resistance profile against HIV-1 RT mutants in MT-2 cells, K103N/Y181C; details: ratio of mean EC50 mutant/WT virus
Protocol: as §2, §3

[8] = system: HIV-1 recombinant strain encoding reverse transcriptase mutation Y188L; test: Resistance profile against HIV-1 RT mutants in MT-2 cells, Y188L; details: ratio of mean EC50 mutant/WT virus
Protocol: as §2, §3

[9] = system: HIV-1 recombinant strain encoding reverse transcriptase mutation E138K/M184V; test: Resistance profile against HIV-1 RT mutants in MT-2 cells, E138K/M184V; details: ratio of mean EC50 mutant/WT virus
Protocol: Compounds were tested for antiviral activity against a panel of NNRTI resistant viruses. A panel of 8 clonal site-directed mutant viruses representing the major resistance development pathways against rilpivirine (“RPV”), efavirenz (“EFV”), and nevirapine (“NVP”), containing both single and double mutations within HIV-1 reverse transcriptase was employed. Further details and background can be found in Janssen et al. J. Med. Chem, 2005, 48, 1901-1909; Das et al., Proc. Nat. Acad. Sci., 2008, vol., 105, no. 5, 1466-1471; and Kuroda et al., Nature Chemistry, 2013, DOI: 10.1038/NCHEM. 1559. […] HIV-1 recombinant strains encoding reverse transcriptase mutations K103N, Y181C, Y188L, G190A, K103N/Y181C, L1001/Y181C, E138K or E138KIM 184V were constructed by site-directed mutagenesis. Wild-type and mutant viruses were prepared by transfecting infectious proviral HXB2-based cDNA clones into MT-2 cells and harvesting the cell supernatants. MT-2 cells were infected with wild-type and mutant HIV-1 strains at a multiplicity of infection (MOI) of 0.005 by gentle mixing for 3 hours at 37° C. and then added at a density of 16,667 cells per well in 50 μL complete RPMI cell culture media (containing 10% fetal bovine serum (FBS) and 10% penicillin-streptomycin) to 96-well plates containing 50 μL of a 3-fold serial dilution of test compounds in RPMI medium. After 5 days of incubation at 37° C. in a humidified incubator in the presence of 5% CO2. 100 μL of Cell Titer-Glo™ Reagent (Promega Biosciences, Inc., Madison, Wis.) was added to each well and the relative light units (RLU) measured on an Envision plate reader. […] The EC50 value was defined as the compound concentration inducing a 50% decrease in virus replication. […]
as §3, with “Results are disclosed in FIG. 1 and in Tables 3 and 4 below.” left out

[10] = molecular target: T1, hERG channels (Homo sapiens, UniProt Q12809); test: hERG assay, whole cell recordings in CHO cell line stably expressing hERG channels; details: CHO cells, whole cell patch clamp; greater than values indicate the maximum achievable concentration in the assay
T1 construct: host or cells: CHO cell line stably expressing hERG
T1 sequence (Q12809 whole entry): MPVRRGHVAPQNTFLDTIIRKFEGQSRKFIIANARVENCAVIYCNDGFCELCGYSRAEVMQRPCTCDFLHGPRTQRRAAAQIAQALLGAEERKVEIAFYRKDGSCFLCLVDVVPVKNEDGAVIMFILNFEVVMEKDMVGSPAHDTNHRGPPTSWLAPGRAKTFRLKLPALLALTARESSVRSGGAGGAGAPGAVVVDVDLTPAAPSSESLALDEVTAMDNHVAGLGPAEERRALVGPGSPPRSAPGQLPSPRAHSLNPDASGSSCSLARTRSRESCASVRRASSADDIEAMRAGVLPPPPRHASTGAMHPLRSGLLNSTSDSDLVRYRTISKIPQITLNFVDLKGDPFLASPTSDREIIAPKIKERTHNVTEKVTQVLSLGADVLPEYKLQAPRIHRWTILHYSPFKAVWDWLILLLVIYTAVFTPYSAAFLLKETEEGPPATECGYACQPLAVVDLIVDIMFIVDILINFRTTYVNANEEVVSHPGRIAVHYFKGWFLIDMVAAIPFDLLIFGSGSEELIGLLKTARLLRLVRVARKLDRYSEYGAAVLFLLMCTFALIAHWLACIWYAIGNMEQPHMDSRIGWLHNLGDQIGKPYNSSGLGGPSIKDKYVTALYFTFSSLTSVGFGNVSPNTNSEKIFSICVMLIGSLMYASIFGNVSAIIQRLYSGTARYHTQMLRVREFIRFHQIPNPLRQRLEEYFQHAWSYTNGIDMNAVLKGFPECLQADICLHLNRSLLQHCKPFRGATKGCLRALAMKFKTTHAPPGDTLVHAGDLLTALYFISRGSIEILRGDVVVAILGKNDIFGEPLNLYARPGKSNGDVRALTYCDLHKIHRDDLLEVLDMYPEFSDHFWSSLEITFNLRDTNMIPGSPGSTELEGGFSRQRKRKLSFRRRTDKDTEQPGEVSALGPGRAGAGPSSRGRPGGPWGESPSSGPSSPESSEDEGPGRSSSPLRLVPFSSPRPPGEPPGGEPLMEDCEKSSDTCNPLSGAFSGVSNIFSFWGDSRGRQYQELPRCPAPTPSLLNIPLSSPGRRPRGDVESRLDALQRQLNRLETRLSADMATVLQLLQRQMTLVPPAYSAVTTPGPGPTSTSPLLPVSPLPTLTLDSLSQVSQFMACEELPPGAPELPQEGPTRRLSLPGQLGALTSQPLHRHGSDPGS
Protocol: AVIVA's CHO cell line, which stably expresses hERG channels, was used for the study. Cells were cultured in DMEM/F12 containing 10% FBS, 1% penicillin/streptomycin and 500 μg/ml G418. Before testing, cells were harvested using Accumax (Innovative Cell Technologies).
External Solution: 2 mM CaCl2; 2 mM MgCl2; 4 mM KCl; 150 mM NaCl; 10 mM Glucose; 10 mM HEPES; 305-315 mOsm; pH 7.4 (adjusted with 5M NaOH.)
Internal Solution: 140 mM KCl; 10 mM MgCl2; 6 mM EGTA; 5 mM HEPES-Na; 5 mM ATP-Mg; 295-305 mOsm; pH 7.25 (adjusted with 1M KOH).
Whole cell recordings were performed using PX 7000A (Axon Instruments) with AVIVA's SealChip™ technology. Cells were voltage clamped at a holding potential of −80 mV. The hERG current was then activated by a depolarizing step to −50 mV for 300 ms. This first step at −50 mV was used as a baseline for measuring peak amplitude of the tail current. Next, a voltage step to +20 mV was applied for 5 s to activate the channels. Finally, a step back to −50 mV for 5 s removed activation and the deactivating tail current was recorded.
All test articles were prepared from 10 mM DMSO stock solutions. Solutions were mixed by sonication for 20 min, followed by vigorous vortexing. Prior to testing, compounds were diluted to test concentrations in glass vials using External Solution. Dilutions were prepared no longer than 20 min prior to use.
After achieving whole cell configuration, cells were monitored for 90 s to assess stability and then washed with External Solution for 66 s. The voltage protocol was then applied to the cells every 12 s throughout the procedure. Only stable cells with recording parameters above threshold were allowed to enter the drug addition procedure.
External solution containing 0.1% DMSO (vehicle) was applied to the cells to establish a baseline. After allowing the current to stabilize for 3 to 10 min, test articles were applied. Test article solutions were added to cells in 4 separate additions. Cells were kept in test solution until effect of the test article reached steady state, to a maximum of 12 min. Next, 1 μM cisapride (positive control) was added. Finally, washout with External Solution was performed until the recovery current reached steady state.
Data analysis was performed using DataXpress (Axon Instruments), Clampfit (Axon Instruments) and Origin (OriginLab Corporation) software. The greater than values in Table 5 indicate the maximum achievable concentration in the assay (e.g., compounds achieving their solubility limit).

[11] = system: HIV-1 recombinant strain encoding reverse transcriptase mutation G190A; test: Resistance profile against HIV-1 RT mutants in MT-2 cells, G190A; details: ratio of mean EC50 mutant/WT virus
Protocol: as §2, §3

[12] = Human immunodeficiency virus 1, MT4, 120 h, MT-4 cells, 5 days, cytopathic effect, Cell TiterGlo, read-out: MT4 EC50 (nM) against w.t.
[13] = Human immunodeficiency virus 1, MT4, read-out: MT4 EC50 (nM) against w.t. assay 2

Cc1cc(/C=C/C#N)cc(C)c1-c1cccc2c(=O)[nH]c(Nc3ccc(C#N)cn3)nc12 [Compound 34, (E)-6-((8-(4-(2-Cyanovinyl)-2,6-dimethylphenyl)-4-oxo-3,4-dihydroquinazolin-2-yl)amino)nicotinonitrile]
EC50 [1, 12]: 2.4 nM | EC50 [1, 13]: 3 nM | EC50 [2]: 3.2 nM | FC against mutant K103N [2]: 1.0 | EC50 [3]: 11.3 nM | FC against mutant Y181C [3]: 3.7 | Biology resistance panel-low throughput fold change (FC) K103N [4]: 1.4 | Biology resistance panel-low throughput fold change (FC) Y181C [5]: 3.4 | Biology resistance panel-low throughput fold change (FC) L100I/Y181C [6]: 1.7 | Biology resistance panel-low throughput fold change (FC) K103N/Y181C [7]: 12.4 | Biology resistance panel-low throughput fold change (FC) Y188L [8]: 18.7 | Biology resistance panel-low throughput fold change (FC) E138K/M184V [9]: 4.2 | hERG [10]: >3 µM

Cc1cc(/C=C/C#N)cc(C)c1-c1cccc2c(N)nc(Nc3ccc(C#N)cc3)nc12 [Compound 2, (E)-4-((4-Amino-8-(4-(2-cyanovinyl)-2,6-dimethylphenyl)quinazolin-2-yl)amino)benzonitrile]
EC50 [1, 12]: 3.7 nM | EC50 [1, 13]: 3.6 nM | EC50 [2]: 4 nM | FC against mutant K103N [2]: 1.1 | EC50 [3]: 10.9 nM | FC against mutant Y181C [3]: 3.0 | Biology resistance panel-low throughput fold change (FC) K103N [4]: 0.9 | Biology resistance panel-low throughput fold change (FC) Y181C [5]: 4.0 | Biology resistance panel-low throughput fold change (FC) L100I/Y181C [6]: 1.6 | Biology resistance panel-low throughput fold change (FC) K103N/Y181C [7]: 4.1 | Biology resistance panel-low throughput fold change (FC) Y188L [8]: 10.0 | Biology resistance panel-low throughput fold change (FC) G190A [11]: 1.6 | Biology resistance panel-low throughput fold change (FC) E138K/M184V [9]: 5.0 | hERG [10]: >1 µM

Cc1cc(/C=C/C#N)cc(C)c1-c1cccc2cnc(Nc3ccc(C#N)cc3)nc12 [Compound 1, (E)-4-((8-(4-(2-Cyanovinyl)-2,6-dimethylphenyl)quinazolin-2-yl)amino)benzonitrile]
EC50 [1, 12]: 3 nM | EC50 [1, 13]: 6.2 nM | EC50 [2]: 8.8 nM | FC against mutant K103N [2]: 1.4 | EC50 [3]: 17.8 nM | FC against mutant Y181C [3]: 2.9 | Biology resistance panel-low throughput fold change (FC) K103N [4]: 1.3 | Biology resistance panel-low throughput fold change (FC) Y181C [5]: 5.7 | Biology resistance panel-low throughput fold change (FC) L100I/Y181C [6]: 6.9 | Biology resistance panel-low throughput fold change (FC) K103N/Y181C [7]: 14.8 | Biology resistance panel-low throughput fold change (FC) Y188L [8]: 15.2 | Biology resistance panel-low throughput fold change (FC) G190A [11]: 0.6

Cc1cc(/C=C/C#N)cc(C)c1Nc1ccnc(Nc2ccc(C#N)cc2)n1 [Rilpivirine, reference compound]
EC50 [1, 12]: 0.9 nM | EC50 [1, 13]: 1.3 nM | EC50 [2]: 1.5 nM | FC against mutant K103N [2]: 1.2 | EC50 [3]: 3.8 nM | FC against mutant Y181C [3]: 3.1 | Biology resistance panel-low throughput fold change (FC) K103N [4]: 1.0 | Biology resistance panel-low throughput fold change (FC) Y181C [5]: 4.6 | Biology resistance panel-low throughput fold change (FC) L100I/Y181C [6]: 18.1 | Biology resistance panel-low throughput fold change (FC) K103N/Y181C [7]: 7.7 | Biology resistance panel-low throughput fold change (FC) Y188L [8]: 22.8 | Biology resistance panel-low throughput fold change (FC) G190A [11]: 0.8 | Biology resistance panel-low throughput fold change (FC) E138K/M184V [9]: 3.0 | hERG [10]: 0.5 µM
